What all share (type): physicochemical
Data set [1] is described as follows: Dynamic vapor sorption/desorption (DVS). The note with it: 25° C., 85% RH. As to the method: Moisture sorption/desorption data were collected on a SMS DVS intrinsic Vapor Sorption Analyzer under a nitrogen purge. The DVS experiment generally includes a moisture sorption step and a moisture desorption step. […] In other words, the sample is considered to have reached an equilibrium between moisture sorption and desorption under the relative humidity when dm/dt≤0.01%. The sample was maintained at the temperature of 25° C. with relative humidity varied from 0% to 95%, and back to 0% at an increment of 5% RH each step.

Data set [2] can be described thus: Slurry stability in purified water (XRPD). The settings on record: stirred overnight at room temperature. On the procedure: About 30 mg of Form land Form 5D, Form 6, and Form 8 were mixed with about 2.5 ml of purified water, and the mixtures were stirred for overnight at room temperature. The wet solids were isolated by centrifugation, and further dried in vacuum for 2.5 hours before being analyzed with XRPD.

The nature of data set [3]: Solubility in water, buffers and bio-relevant media (37° C., 24 h shaking, HPLC). The note with it: for Solubility: 37° C., 24 h; for Appearance / solubility in water: shaken about 24 hours, compared with Form 1. As to the method: The solubility of Form 1, Form 2, Form 5D, Form 6, Form 8, and Form 11 was analyzed in water, 0.1NaqueousHCl, pH4.5 acetate buffer solution, pH6.8 phosphate buffer solution, simulated gastric fluid (SGF), Fasted State Simulated Intestinal Fluid (FaSSIF), and Fed State Simulated Intestinal Fluid (FeSSIF).
About 5 mg or 10 mg of sample was weighed out into each vial and mixed with about 5 ml of medium to form a solution. The target concentration for the potassium salt in water was 2 mg/ml; and the target concentration for all other forms were 1 mg/mL. All samples were kept shaking at 200 rounds per minute (rpm) under 37° C. for 24 hours. The pH value of these samples were determined after shaking for 24 hours. Subsequently, they were centrifuged at the speed of 12000 rpm for 2 mins. The supernatant was diluted with methanol as necessary, and the concentrations were determined by HPLC. When the solubility of potassium salt was tested in water, the supernatant was diluted 100 times, while no other samples were diluted. The HPLC analysis utilizes Agilent Eclipse XDB-C8 4.6*150 mm, 5 μm column at 40° C., a mobile phase of 0.1% TFA: ACN=70:30, an injection volume of 10 μl, a flow rate of 1.0 ml/min, a diluent of methanol, and a detection wavelength of 234 nm.

The nature of data set [4]: Solid state stability under stress conditions (XRPD, HPLC). The settings on record: closed vial about 60° C.; closed vial about 40° C./75% RH; 1 week and 2 weeks. On the procedure: Form 1. Form 2, Form 6, Form 8, and Form 11 were each placed under following stress conditions: (1) in a closed vial at a temperature of about 60° C., and (2) in a closed vial at a temperature of about 40′° C. and a humidity of about 75% RH. The solids were analyzed with XRPD at 1 week and 2 weeks intervals.
Additionally, all forms were analyzed with HPLC for impurity at the 1 week and 2 weeks intervals. In a typical analysis, about 5 mg of forms were each dissolved in 10 ml of diluents with the aid of sonication for 2 minutes. THF was used as the diluent for Form 1, and methanol was used as the diluent for Form 6, Form 8, and Form 11. The HPLC analysis utilized Agilent Eclipse XDB-C18 4.6*150 mm. 3.5 μm at 30° C., a mobile phase of a gradient between 0.1% H3PO4 and acetonitrile (9:1 to 2:8 to 9:1), an injection volume of 10 μl, a flow rate of 1.0 ml/min, and a detection wavelength of 214 nm.
Form 2 was further subject to the stability test in an open vial at 40° C. and a relative humidity of 75% RH.

In brackets after ≈: the same amount, converted by molar mass.

As to `CCc1nc2ccccn2c1C(=O)c1cc(Br)c(O)c(C#N)c1` [Form 10, 3-bromo-5-[(2-ethylimidazo[1,2-a]pyridin-3-yl)carbonyl]-2-hydroxybenzonitrile], the “DVS (85% RH)” value in data set [1] is reported as 2.37%.

As for `CCc1nc2ccccn2c1C(=O)c1cc(Br)c(O)c(C#N)c1` [Form 9, 3-bromo-5-[(2-ethylimidazo[1,2-a]pyridin-3-yl)carbonyl]-2-hydroxybenzonitrile], the “DVS (85% RH)” value in data set [1] came out at 0.29%.

Turning to `CCc1nc2ccccn2c1C(=O)c1cc(Br)c(O)c(C#N)c1` [Form 12, 3-bromo-5-[(2-ethylimidazo[1,2-a]pyridin-3-yl)carbonyl]-2-hydroxybenzonitrile], the “DVS (85% RH)” value in data set [1] is reported as 8.07%.

Take `CCc1nc2ccccn2c1C(=O)c1cc(Br)c(O)c(C#N)c1` [Form 7, 3-bromo-5-[(2-ethylimidazo[1,2-a]pyridin-3-yl)carbonyl]-2-hydroxybenzonitrile]: in data set [1], the “DVS (85% RH)” value stood at 1.93%.

On to `CCc1nc2ccccn2c1C(=O)c1cc(Br)c(O)c(C#N)c1` [Form 6, 3-bromo-5-[(2-ethylimidazo[1,2-a]pyridin-3-yl)carbonyl]-2-hydroxybenzonitrile], for which the “DVS (85% RH)” value in data set [1] is on record as 0.35%. Besides, in data set [2], the “Crystal form after slurry in purified water (XRPD)” value is “transformed into Form 1”. The Solubility (usually the concentration that dissolves in the medium under given conditions) was found to be 4.6 µg/mL (≈ 12.4 µM) in data set [3] (0.1N HCl); 45.8 µg/mL (≈ 124 µM) in data set [3] (FaSSIF); 4.4 µg/mL (≈ 11.9 µM) in data set [3] (FeSSIF); 3.3 µg/mL (≈ 8.91 µM) in data set [3] (SGF); 0.4 µg/mL (≈ 1.08 µM) in data set [3] (Water); 0.5 µg/mL (≈ 1.35 µM) in data set [3] (pH 4.5 acetate buffer). Moreover, the Solubility in data set [3] (pH 6.8 phosphate buffer) worked out at 25.7 µg/mL (≈ 69.4 µM). For the same molecule, the “Appearance / solubility in water” value in data set [3] is “reduced solubility in water”. In addition, in data set [4], the “XRPD pattern after stress storage” value is given as “substantially similar to those received at the initial time”.

With `CCc1nc2ccccn2c1C(=O)c1cc(Br)c(O)c(C#N)c1` [Form 11, 3-bromo-5-[(2-ethylimidazo[1,2-a]pyridin-3-yl)carbonyl]-2-hydroxybenzonitrile], the “DVS (85% RH)” value in data set [1] was found to be 6.18%. Further, the Solubility turned out to be 6.8 µg/mL (≈ 18.4 µM) in data set [3] (0.1N HCl); 28.4 µg/mL (≈ 76.7 µM) in data set [3] (FaSSIF); 3.4 µg/mL (≈ 9.18 µM) in data set [3] (FeSSIF); 5.8 µg/mL (≈ 15.7 µM) in data set [3] (SGF); 1914.5 µg/mL (≈ 5170 µM) in data set [3] (Water); 1.7 µg/mL (≈ 4.59 µM) in data set [3] (pH 4.5 acetate buffer). In data set [3] (pH 6.8 phosphate buffer), the Solubility amounted to 31.0 µg/mL (≈ 83.7 µM). In addition, in data set [3], the “Appearance / solubility in water” value was “nearly clear solution in water”. For the same molecule, the “XRPD pattern after stress storage” value in data set [4] was “substantially similar to those received at the initial time”.

Consider `CCc1nc2ccccn2c1C(=O)c1cc(Br)c(O)c(C#N)c1` [Form 8, 3-bromo-5-[(2-ethylimidazo[1,2-a]pyridin-3-yl)carbonyl]-2-hydroxybenzonitrile], for which the “DVS (85% RH)” value in data set [1] is listed as 4.66%. Further, the “Crystal form after slurry in purified water (XRPD)” value in data set [2] is given as “transformed into Form 1”. Also, the Solubility is 5.3 µg/mL (≈ 14.3 µM) in data set [3] (0.1N HCl); 14.5 µg/mL (≈ 39.2 µM) in data set [3] (FaSSIF); 8.6 µg/mL (≈ 23.2 µM) in data set [3] (FeSSIF); 3.5 µg/mL (≈ 9.45 µM) in data set [3] (SGF); 0.5 µg/mL (≈ 1.35 µM) in data set [3] (Water); 0.6 µg/mL (≈ 1.62 µM) in data set [3] (pH 4.5 acetate buffer). For the same molecule, the Solubility in data set [3] (pH 6.8 phosphate buffer) turned out to be 17.9 µg/mL (≈ 48.4 µM). The “Appearance / solubility in water” value in data set [3] is “reduced solubility in water”. For the same molecule, the “XRPD pattern after stress storage” value in data set [4] was “substantially similar to those received at the initial time”.

The values above are taken from patent US20250368639A1, “SOLID FORMS OF A COMPOUND FOR TREATING OR PREVENTING HYPERURICEMIA OR GOUT” (ATOM THERAPEUTICS CO., LTD, priority 2022, published 2025).
